Data: US20220002806A1, “BIOMARKER” (ERBER AKTIENGESELLSCHAFT, priority 2018, published 2022)

Key:
[1] = target: T1, pregnane X receptor (Homo sapiens, UniProt O75469); settings: in vitro; Ayed-Boussema et al. 2011; cited from earlier work
T1 sequence (O75469 1-434): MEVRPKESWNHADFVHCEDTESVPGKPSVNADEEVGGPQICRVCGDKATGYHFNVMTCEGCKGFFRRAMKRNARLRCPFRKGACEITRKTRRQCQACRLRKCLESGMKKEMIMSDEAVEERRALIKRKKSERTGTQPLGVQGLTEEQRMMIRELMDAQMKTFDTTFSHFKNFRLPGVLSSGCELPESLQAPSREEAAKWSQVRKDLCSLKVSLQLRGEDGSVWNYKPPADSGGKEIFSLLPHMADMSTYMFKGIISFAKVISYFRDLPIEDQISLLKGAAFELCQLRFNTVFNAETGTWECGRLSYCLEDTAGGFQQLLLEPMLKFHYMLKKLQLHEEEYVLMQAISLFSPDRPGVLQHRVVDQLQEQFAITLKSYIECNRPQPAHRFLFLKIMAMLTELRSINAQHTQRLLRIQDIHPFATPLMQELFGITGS

[2] = test system: miR-7; settings: ovariectomized pigs; intraperitoneal injection of 112.5 mg ZEN per day; He et al. 2018; cited from earlier work
[3] = test system: weaned female piglets; assay: Feeding trial in weaned female piglets: vulva surface, reproductive tract weight, body weight; format: in vivo, pig; settings: for reproductive tract weight relative to body weight, average (±SD): [reproductive tract (in grams)/body weight (in kg)]*100; for increase of vulva surface compared to the control group: d 26
Source text: (§1) Weaned female piglets (sow: Landrace×Large White, boar: Pietrain; 30+/−2 days old) were obtained from a local producer and individually tagged. Piglets were housed in slatted floor pens under controlled environmental conditions. After an acclimatization period of seven days, twenty-four female piglets were selected based on both body weight and vulva size, and allocated to one of four groups (6 animals/group). Piglets received either blank feed (negative control; Ctrl) or feed contaminated with ZEN in three increasing concentrations (ZEN low: 0.17 mg/kg diet; ZEN medium: 1.5 mg/kg diet; ZEN high: 4.6 mg/kg diet). During the 28-day experimental period, each treatment group was given free access to water and the assigned diet. The pigs were observed daily and weighed weekly.
Diets were manufactured at BIOMIN AN (Herzogenburg, Austria), and formulated according to the energy and amino acid requirements for piglets. Four different batches were prepared, one control batch and three batches artificially contaminated with ZEN (Fermentek LTD, Israel; purity >99.2%). Homogenous distribution of ZEN within the diets was achieved by preparation of maltodextrin premixes, which contained appropriate amounts of ZEN and were added to the basal feed at an inclusion rate of 0.9% (w/w). Final ZEN concentrations were verified by HPLC-MS (Romer Labs GmbH) and confirmed.
(§2) Blood was collected weekly (d 0, 6, 14, 21 and 28) from individual animals by punctuation of the vena cava cranialis (Primavette® EDTA, Kabe Labortechnik GmbH, Nümbrecht-Elsenroth, Deutschland). After centrifugation (1500×g, 20 min), serum samples were stored at −80° C. for later analysis. Vulva length and width were measured at regular intervals with a caliper to determine the dietary ZEN effects. The vulva area was calculated as vulva length×vulva width, as previously reported (Jiang et al. 2011. Journal of animal science, 89, 3008-3015). Eight measurements were done per piglet over the experimental period.
After 28 days of dietary exposure to the experimental diets, pigs were anesthetized by intramuscular injection of ketamine (0.1 mL/kg body weight (b.w.) Narketan®, Vétoquinol GmbH, Ravensburg, Germany) and azaperone (0.03 mL/kg b.w.; Stresnil®, Janssen-Cilag, Neuss, Germany). Subsequently, animals were euthanized by intracardial injection of T61® (Intervet, UnterschleiBheim, Germany; 0.1 ml/kg b.w.). The whole reproductive tract was collected, weighed and examined for any clinical signs. Small pieces of the corpus uteri and the mid-jejunum were dissected, placed into 1 mL of RNAlater, and stored overnight at 4° C. The next day, all the tissue samples were transferred to −80° C. for long-term storage, and until processed for transcriptomics analysis.

[4] = target: estrogen receptors β (Homo sapiens, UniProt Q92731); settings: Zinedine et al. 2007; cited from earlier work
Sequence of estrogen receptors β (Q92731 whole entry): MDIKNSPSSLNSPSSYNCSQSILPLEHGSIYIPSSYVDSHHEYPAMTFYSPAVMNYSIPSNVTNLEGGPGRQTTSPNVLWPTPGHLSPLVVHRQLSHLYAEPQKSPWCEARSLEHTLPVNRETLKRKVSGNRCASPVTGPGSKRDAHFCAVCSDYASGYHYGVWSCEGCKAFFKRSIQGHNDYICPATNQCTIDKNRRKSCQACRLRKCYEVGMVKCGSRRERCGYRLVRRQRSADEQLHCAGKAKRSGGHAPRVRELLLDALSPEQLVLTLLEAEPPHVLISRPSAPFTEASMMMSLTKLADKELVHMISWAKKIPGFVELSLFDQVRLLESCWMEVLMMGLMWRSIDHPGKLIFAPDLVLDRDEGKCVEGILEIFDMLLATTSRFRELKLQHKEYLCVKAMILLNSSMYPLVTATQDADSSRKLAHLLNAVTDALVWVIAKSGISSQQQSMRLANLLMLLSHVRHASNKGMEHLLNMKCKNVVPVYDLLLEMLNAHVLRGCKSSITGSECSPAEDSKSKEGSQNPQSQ

[5] = test system: miRNAs in serum; assay: Targeted qPCR-based miRNA analysis in blood serum of ZEN-exposed piglets; format: in vivo, pig
Source text: as §1, §2
miRNA extraction and qPCR analysis: Unlike the small-RNA-Seq analysis, all the animals from the feeding trial were used for investigations of the miRNA profile in the serum (6 per group; total of 24 animals). RNA was isolated from the serum samples using the miRNeasy Mini Kit (Qiagen, Germany). […] To calculate the cycle of quantification values (Cq-values), the second derivative method was used, as known by a person skilled in the art. Cq-values were normalized to the mean Cq-value in each sample (global mean normalization) by subtracting the individual miRNA Cq-value from the Cq average calculated for that sample. […]

[6] = test system: prepuberal gilts; settings: prepuberal gilts fed diets containing 1-5 ppm ZEN; Osweiler; cited from earlier work
[7] = Zinedine et al. 2007; cited from earlier work
[8] = Ctrl vs ZEN high group (4.6 mg/kg diet), day 6 or day 28, unadjusted p-value ≤0.1

SMILES: C[C@H]1CCCC(=O)CCC/C=C/c2cc(O)cc(O)c2C(=O)O1 [ZEN, (2E,11S)-15,17-dihydroxy-11-methyl-12-oxabicyclo[12.4.0]octadeca-1(18),2,14,16-tetraene-7,13-dione]
- action on pregnane X receptor [1]: activates
- expression of miR-7 in pituitary tissue [2]: increase
- days of exposure after which vulva surface was significantly increased ([3]; ZEN high (4.6 mg/kg diet)): six
- reproductive tract weight relative to body weight, average (±SD) ([3]; ZEN high (4.6 mg/kg diet), 28 days): 353.4±110.6
- increase of vulva surface compared to the control group ([3]; ZEN high (4.6 mg/kg diet)): +230%
- reproductive tract weight relative to body weight, average (±SD) ([3]; ZEN low (0.17 mg/kg diet), 28 days): 55.8±17.2
- days of exposure after which vulva surface was significantly increased ([3]; ZEN medium (1.5 mg/kg diet)): thirteen
- reproductive tract weight relative to body weight, average (±SD) ([3]; ZEN medium (1.5 mg/kg diet), 28 days): 121.4±43.4
- increase of vulva surface compared to the control group ([3]; ZEN medium (1.5 mg/kg diet)): +90%
- effect on the body weight of the piglets ([3]; independent of the concentration (0.17-4.6 mg/kg diet), 28 days): no effect
- agonist action on estrogen receptor β [4]: partial agonist
- serum levels of ssc-miR-1, ssc-miR-142-3p, ssc-miR-181c and ssc-miR-182 [5, 8]: down-regulated
- serum levels of ssc-miR-140-3p, ssc-miR-455-3p, ssc-miR-455-5p and ssc-miR-542-3p [5, 8]: Up-regulated
- log 2-transformed fold changes of serum ssc-miR-129a, ssc-miR-135, ssc-miR-206, ssc-miR-432-5p, ssc-miR-493-3p and ssc-miR-503 ([5]; Ctrl vs ZEN high group, log 2 fold changes ≤−0.8 or ≥0.8): considerable effect
- mammary gland development [6]: triggered
- acute toxicity [7]: low
